Results as given in ChEMBL document CHEMBL1201862, “PubChem BioAssay data set” (2004).
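Compound exposure: 48 hours, 5 concentrations, 96-well plates. GI50 marks 50% less growth.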 Active and inactive are the calls of the source. Rule as the data show it: active = GI50 up to about 1.1 µM and inactive = higher.

Experiments:
Assay in all cases: NCI-60 cell line screen, 48 h
786-0 = tested on: 786-0
A498 = tested on: A498
A549 = tested on: A549
ACHN = tested on: ACHN
BT-549 = tested on: BT-549
CAKI-1 = tested on: CAKI-1
CCRF-CEM = tested on: CCRF-CEM
COLO 205 = tested on: COLO 205
DU-145 = tested on: DU-145
EKVX = tested on: EKVX
HCT-116 = tested on: HCT-116
HCT-15 = tested on: HCT-15
HL-60 = tested on: HL-60
HOP-62 = tested on: HOP-62
HOP-92 = tested on: HOP-92
HT-29 = tested on: HT-29
Hs-578T = tested on: Hs-578T
IGROV-1 = tested on: IGROV-1
K562 = tested on: K562
KM12 = tested on: KM12
LOX IMVI = tested on: LOX IMVI
M14 = tested on: M14
MCF7 = tested on: MCF7
MDA-MB-231 = tested on: MDA-MB-231
MDA-MB-435 = tested on: MDA-MB-435
MDA-N = tested on: MDA-N
MOLT-4 = tested on: MOLT-4
Malme-3M = tested on: Malme-3M
NCI-H226 = tested on: NCI-H226
NCI-H23 = tested on: NCI-H23
NCI-H460 = tested on: NCI-H460
NCI-H522 = tested on: NCI-H522
NCI/ADR-RES = tested on: NCI/ADR-RES
OVCAR-3 = tested on: OVCAR-3
OVCAR-4 = tested on: OVCAR-4
OVCAR-5 = tested on: OVCAR-5
OVCAR-8 = tested on: OVCAR-8
PC-3 = tested on: PC-3
RPMI-8226 = tested on: RPMI-8226
RXF 393 = tested on: RXF 393
SF-268 = tested on: SF-268
SF-295 = tested on: SF-295
SF-539 = tested on: SF-539
SK-MEL-28 = tested on: SK-MEL-28
SK-MEL-2 = tested on: SK-MEL-2
SK-MEL-5 = tested on: SK-MEL-5
SK-OV-3 = tested on: SK-OV-3
SN12C = tested on: SN12C
SNB-19 = tested on: SNB-19
SNB-75 = tested on: SNB-75
SR = tested on: SR
SW-620 = tested on: SW-620
T47D = tested on: T47D
TK-10 = tested on: TK-10
U-251 = tested on: U-251
UACC-257 = tested on: UACC-257
UACC-62 = tested on: UACC-62
UO-31 = tested on: UO-31
HCC 2998 = tested on: HCC 2998

For `O=c1[nH][nH]c(=S)c(=O)[nH]1`, the GI50 (786-0) was > 100 µM (inactive), the GI50 (A498) was > 100 µM (inactive) and the GI50 (A549) was > 100 µM (inactive). The GI50 (ACHN) was > 100 µM (inactive), the GI50 (BT-549) was > 100 µM (inactive) and the GI50 (CAKI-1) was > 100 µM (inactive). For the same compound, the GI50 (CCRF-CEM) was > 100 µM (inactive), the GI50 (COLO 205) was > 100 µM (inactive) and the GI50 (DU-145) was > 100 µM (inactive). For the same compound, the GI50 (EKVX) was > 100 µM (inactive), the GI50 (HCT-116) was > 100 µM (inactive) and the GI50 (HCT-15) was > 100 µM. For the same compound, the GI50 (HL-60) was > 100 µM (inactive), the GI50 (HOP-62) was > 100 µM (inactive) and the GI50 (HOP-92) was > 100 µM (inactive). For the same compound, the GI50 (HT-29) was > 100 µM (inactive), the GI50 (Hs-578T) was > 100 µM (inactive) and the GI50 (IGROV-1) was > 100 µM (inactive). For the same compound, the GI50 (K562) was > 100 µM (inactive), the GI50 (KM12) was > 100 µM (inactive) and the GI50 (LOX IMVI) was > 100 µM (inactive). For the same compound, the GI50 (M14) was > 100 µM (inactive), the GI50 (MCF7) was > 100 µM (inactive) and the GI50 (MDA-MB-231) was > 100 µM (inactive). For the same compound, the GI50 (MDA-MB-435) was > 100 µM (inactive), the GI50 (MDA-N) was > 100 µM (inactive) and the GI50 (MOLT-4) was > 100 µM (inactive). For the same compound, the GI50 (Malme-3M) was > 100 µM (inactive), the GI50 (NCI-H226) was > 100 µM (inactive) and the GI50 (NCI-H23) was > 100 µM (inactive). For the same compound, the GI50 (NCI-H460) was > 100 µM (inactive), the GI50 (NCI-H522) was > 100 µM (inactive) and the GI50 (NCI/ADR-RES) was > 100 µM (inactive). The GI50 (OVCAR-3) was > 100 µM (inactive), the GI50 (OVCAR-4) was > 100 µM (inactive) and the GI50 (OVCAR-5) was > 100 µM (inactive). The GI50 (OVCAR-8) was > 100 µM (inactive), the GI50 (PC-3) was > 100 µM (inactive) and the GI50 (RPMI-8226) was > 100 µM (inactive). The GI50 (RXF 393) was > 100 µM (inactive), the GI50 (SF-268) was > 100 µM (inactive) and the GI50 (SF-295) was > 100 µM (inactive). For the same compound, the GI50 (SF-539) was > 100 µM (inactive), the GI50 (SK-MEL-28) was > 100 µM (inactive) and the GI50 (SK-MEL-2) was > 100 µM (inactive). For the same compound, the GI50 (SK-MEL-5) was > 100 µM (inactive), the GI50 (SK-OV-3) was > 100 µM (inactive) and the GI50 (SN12C) was > 100 µM (inactive). For the same compound, the GI50 (SNB-19) was > 100 µM (inactive), the GI50 (SNB-75) was > 100 µM (inactive) and the GI50 (SR) was > 100 µM (inactive). The GI50 (SW-620) was > 100 µM (inactive), the GI50 (T47D) was > 100 µM (inactive) and the GI50 (TK-10) was > 100 µM (inactive). For the same compound, the GI50 (U-251) was > 100 µM (inactive), the GI50 (UACC-257) was > 100 µM (inactive) and the GI50 (UACC-62) was > 100 µM (inactive). For the same compound, the GI50 (UO-31) was > 100 µM (inactive).

In the case of `N=C(N)SCc1cccc(-c2nc3ccccc3c(=O)o2)c1`, the GI50 (786-0) is reported as > 100 µM (inactive), the GI50 (A498) is reported as > 100 µM (inactive) and the GI50 (A549) is reported as > 100 µM (inactive). For the same compound, the GI50 (ACHN) was > 100 µM (inactive), the GI50 (BT-549) was > 100 µM (inactive) and the GI50 (CAKI-1) was > 100 µM (inactive). For the same compound, the GI50 (COLO 205) was > 100 µM (inactive), the GI50 (DU-145) was > 100 µM (inactive) and the GI50 (EKVX) was > 100 µM (inactive). For the same compound, the GI50 (HCC 2998) was > 100 µM (inactive), the GI50 (HCT-116) was > 100 µM (inactive) and the GI50 (HCT-15) was > 100 µM. The GI50 (HOP-62) was > 100 µM (inactive), the GI50 (HOP-92) was > 100 µM (inactive) and the GI50 (HT-29) was > 100 µM (inactive). The GI50 (Hs-578T) was > 100 µM (inactive), the GI50 (IGROV-1) was > 100 µM (inactive) and the GI50 (K562) was > 100 µM (inactive). The GI50 (KM12) was > 100 µM (inactive), the GI50 (LOX IMVI) was > 100 µM (inactive) and the GI50 (M14) was > 100 µM (inactive). The GI50 (MCF7) was > 100 µM (inactive), the GI50 (MDA-MB-231) was > 100 µM (inactive) and the GI50 (MDA-MB-435) was > 100 µM (inactive). The GI50 (MDA-N) was > 100 µM (inactive), the GI50 (Malme-3M) was > 100 µM (inactive) and the GI50 (NCI-H226) was > 100 µM (inactive). For the same compound, the GI50 (NCI-H23) was > 100 µM (inactive), the GI50 (NCI-H460) was > 100 µM (inactive) and the GI50 (NCI-H522) was > 100 µM (inactive). The GI50 (NCI/ADR-RES) was > 100 µM (inactive), the GI50 (OVCAR-3) was > 100 µM (inactive) and the GI50 (OVCAR-4) was > 100 µM (inactive). For the same compound, the GI50 (OVCAR-5) was > 100 µM (inactive), the GI50 (OVCAR-8) was > 100 µM (inactive) and the GI50 (PC-3) was > 100 µM (inactive). For the same compound, the GI50 (RPMI-8226) was > 100 µM (inactive), the GI50 (RXF 393) was > 100 µM (inactive) and the GI50 (SF-268) was > 100 µM (inactive). The GI50 (SF-295) was > 100 µM (inactive), the GI50 (SF-539) was > 100 µM (inactive) and the GI50 (SK-MEL-28) was > 100 µM (inactive). The GI50 (SK-MEL-2) was > 100 µM (inactive), the GI50 (SK-MEL-5) was > 100 µM (inactive) and the GI50 (SK-OV-3) was > 100 µM (inactive). For the same compound, the GI50 (SN12C) was > 100 µM (inactive), the GI50 (SNB-19) was > 100 µM (inactive) and the GI50 (SNB-75) was > 100 µM (inactive). For the same compound, the GI50 (SR) was 95.5 µM (inactive), the GI50 (SW-620) was > 100 µM (inactive) and the GI50 (T47D) was > 100 µM (inactive). For the same compound, the GI50 (TK-10) was > 100 µM (inactive), the GI50 (U-251) was > 100 µM (inactive) and the GI50 (UACC-257) was > 100 µM (inactive). The GI50 (UACC-62) was > 100 µM (inactive) and the GI50 (UO-31) was > 100 µM (inactive).

With `CCC1(c2ccc(N3C(=O)c4cc(OC)c(OC)cc4C3=O)cc2)CCC(=O)NC1=O` (stereo unspecified) the GI50 (786-0) was > 10 µM (inactive), the GI50 (A498) was > 10 µM (inactive) and the GI50 (A549) was > 10 µM (inactive). The GI50 (ACHN) was > 10 µM (inactive), the GI50 (BT-549) was > 10 µM (inactive) and the GI50 (CAKI-1) was > 10 µM (inactive). For the same compound, the GI50 (CCRF-CEM) was > 10 µM (inactive), the GI50 (COLO 205) was > 10 µM (inactive) and the GI50 (DU-145) was > 10 µM (inactive). For the same compound, the GI50 (EKVX) was > 10 µM (inactive), the GI50 (HCC 2998) was > 10 µM (inactive) and the GI50 (HCT-116) was > 10 µM (inactive). The GI50 (HCT-15) was > 10 µM, the GI50 (HL-60) was > 10 µM (inactive) and the GI50 (HOP-62) was > 10 µM (inactive). For the same compound, the GI50 (HOP-92) was > 10 µM (inactive), the GI50 (HT-29) was > 10 µM (inactive) and the GI50 (Hs-578T) was > 10 µM (inactive). The GI50 (IGROV-1) was > 10 µM (inactive), the GI50 (K562) was > 10 µM (inactive) and the GI50 (KM12) was > 10 µM (inactive). For the same compound, the GI50 (LOX IMVI) was > 10 µM (inactive), the GI50 (M14) was > 10 µM (inactive) and the GI50 (MCF7) was > 10 µM (inactive). For the same compound, the GI50 (MDA-MB-231) was > 10 µM (inactive), the GI50 (MDA-MB-435) was > 10 µM (inactive) and the GI50 (MDA-N) was > 10 µM (inactive). For the same compound, the GI50 (MOLT-4) was > 10 µM (inactive), the GI50 (Malme-3M) was > 10 µM (inactive) and the GI50 (NCI-H226) was > 10 µM (inactive). The GI50 (NCI-H23) was > 10 µM (inactive), the GI50 (NCI-H460) was > 10 µM (inactive) and the GI50 (NCI/ADR-RES) was > 10 µM (inactive). For the same compound, the GI50 (OVCAR-3) was > 10 µM (inactive), the GI50 (OVCAR-4) was > 10 µM (inactive) and the GI50 (OVCAR-5) was > 10 µM (inactive). For the same compound, the GI50 (OVCAR-8) was > 10 µM (inactive), the GI50 (PC-3) was > 10 µM (inactive) and the GI50 (RPMI-8226) was > 10 µM (inactive). The GI50 (RXF 393) was > 10 µM (inactive), the GI50 (SF-268) was > 10 µM (inactive) and the GI50 (SF-295) was > 10 µM (inactive). The GI50 (SF-539) was > 10 µM (inactive), the GI50 (SK-MEL-28) was > 10 µM (inactive) and the GI50 (SK-MEL-2) was > 10 µM (inactive). The GI50 (SK-MEL-5) was > 10 µM (inactive), the GI50 (SK-OV-3) was > 10 µM (inactive) and the GI50 (SN12C) was > 10 µM (inactive). For the same compound, the GI50 (SNB-19) was > 10 µM (inactive), the GI50 (SR) was > 10 µM (inactive) and the GI50 (SW-620) was > 10 µM (inactive). For the same compound, the GI50 (T47D) was > 10 µM (inactive), the GI50 (TK-10) was > 10 µM (inactive) and the GI50 (U-251) was > 10 µM (inactive). The GI50 (UACC-257) was > 10 µM (inactive), the GI50 (UACC-62) was > 10 µM (inactive) and the GI50 (UO-31) was > 10 µM (inactive).
